# Results taken from patent US20100261642A1, “NUTRITIONAL FORMULATION WITH HIGH ENERGY CONTENT” (N.V. NUTRICIA, priority 2007, published 2010).
# Tested on: intestinal epithelial cell lines T84
# Assay: IL-4 mediated barrier disruption in T84 monolayers (flux and transepithelial resistance)
# Format: cell-based, human
# Conditions: for protective effect on IL-4 mediated barrier destruction (4 kD dextran flux), FIG. 1: 10 μM and 100 μM, time and dose dependent; for effect on IL-4 mediated barrier disruption (flux), in words: 100 μM, Table 1 summary, compared to control
# Method: Monolayers (MC) of intestinal epithelial cell lines T84 (ATCC, USA) were cultured on transwell filters (Corning, Costar BV, The Netherlands) allowing both mucosal and serosal sampling and stimulation of human intestinal epithelial cells. Two weeks post confluency the monolayers were incubated in the presence of IL-4 (2 ng/ml, serosal compartment, Sigma, USA) with or without polyunsaturated fatty acids ARA, DHA, GLA, EPA, or control palmitic acid (10 μM or 100 μM, mucosal compartment, Sigma, St. Louis, USA). Cells were pre-incubated with ARA, DHA, EPA, or palmitic acid for 48 hr prior to the IL-4 incubation. The co-incubation of PUFA's and palmitic acid with IL-4 was continued for another 48 hr; while culture medium and additives were changed every 24 hr. The epithelial barrier function was determined by measuring the transepithelial resistance (TER) and permeability.
Structure (SMILES),"protective effect on IL-4 mediated barrier destruction (4 kD dextran flux), FIG. 1","effect on IL-4 mediated barrier disruption (flux), in words","IL-4 Flux (100 μM fatty acid, mucosal, IL-4 2 ng/ml, serosal, 48 hr pre-incubation + 48 hr co-incubation, permeability (4 kD dextran flux))","IL-4 TER (100 μM fatty acid, mucosal, IL-4 2 ng/ml, serosal, 48 hr pre-incubation + 48 hr co-incubation, transepithelial resistance)"
"CCCCC/C=C\C/C=C\C/C=C\C/C=C\CCCC(=O)O [ARA, arachidonic acid]",protect against IL-4 mediated barrier disruption,inhibit the increased flux caused by IL-4,,
"CC/C=C\C/C=C\C/C=C\C/C=C\C/C=C\C/C=C\CCC(=O)O [DHA, docosahexaenoic acid]",,,271,547
CCCCC/C=C\C/C=C\C/C=C\CCCCC(=O)O [GLA],protect against IL-4 mediated barrier disruption,,,
"CCCCCCCCCCCCCCCC(=O)O [Palmitic acid, palmitic acid, reference compound]",,detrimental effect,,
